Results published in patent US20260234144A1 (TAY THERAPEUTICS LIMITED, priority 2023, published 2026).

System: R223X stop codon in the mutated luciferase gene, ADXC8 luciferase reporter cell line
Test: cells
Format: cell-based
Details: ADXC8 cells, 24 hours; for EC (100% of 200 uM G418 response) / Emax: 24 h; for EC (100% of 200 uM G418 response): read-out: pC100%, negative logarithm of the concentration giving the same response as 200 μM G418; for Emax: read-out: Fold Over Control, maximum fold response relative to 200 μM G418

SMILES	EC (100% of 200 uM G418 response) [µM]	Emax [%]	pC100% (negative logarithm of the concentration giving the same response as 200 μM G418)
CNc1nc(N[C@H]2CNC[C@H](O)C2)nc2nc(C)cc(C)c12 [Example 611]	0.1 to 1		
CNc1nc(N[C@@H]2CCN(C)C2)nc2nc(C)cc(OC)c12 [Example 631]	1 to 10	100 to 3000	
Cc1nc2nc(NC3CCN(C)CC3)nc(N)c2c(C)c1Br [Example 22, 6-bromo-5,7-dimethyl-N^2-(1-methylpiperidin-4-yl)pyrido[2,3-d]pyrimidine-2,4-diamine]	1 to 10	100 to 3000	
Cc1cc(C)c2c(N)nc(NCCCN3CC4(COC4)C3)nc2n1 [Example 29, N^2-(3-(2-oxa-6-azaspiro[3.3]heptan-6-yl)propyl)-5,7-dimethylpyrido[2,3-d]pyrimidine-2,4-diamine]	10 to 100	100 to 3000	
CNc1nc(N[C@H]2CN(C)C[C@@H]2F)nc2nc(C)cc(C)c12 [Example 339]	1 to 10	100 to 3000	
Cc1cc(C)c2c(N)nc(NC3CCN(C4COC4)CC3)nc2n1 [Example 197]	> 31.6	0 to 100	
CN1CCC(Nc2nc(N)c3ccc(C(=O)O)nc3n2)CC1 [Example 236, 4-amino-2-((1-methylpiperidin-4-yl)amino)pyrido[2,3-d]pyrimidine-7-carboxylic acid]	> 100	0 to 100	
Cc1cc(C2CC2)nc2nc(NC3CCN(C)CC3)nc(N)c12 [Example 601]	1 to 10		
Cc1cc(C)c2c(N)nc(NCC3CNC3)nc2n1 [Example 199]	> 31.6	0 to 100	
Cc1cc(C)c2c(N)nc(NC[C@@H]3CCCN3)nc2n1 [Example 182]	> 31.6	0 to 100	
Cc1cc(C)c2c(N)nc(NC3CCN(Cc4ccc(S(C)(=O)=O)cc4)CC3)nc2n1 [Example 497]	10 to 100	100 to 3000	
CNc1nc(N[C@H]2CNC[C@H]2F)nc2nc(C)cc(C)c12 [Example 335]	1 to 10	100 to 3000	
CNc1nc(N[C@H]2CN(C)C[C@@H]2C)nc2nc(C)cc(C)c12 [Example 381]	1 to 10	100 to 3000	
CC(C)Oc1ccc2c(N)nc(NC3CCN(C)CC3)nc2n1 [Example 38, 7-isopropoxy-N^2-(1-methylpiperidin-4-yl)pyrido[2,3-d]pyrimidine-2,4-diamine]	> 100	0 to 100	
Cc1cc(C)c2c(N)nc(NC3CCN(Cc4ccc(C#N)cc4C(F)F)CC3)nc2n1 [Example 508, 4-((4-((4-amino-5,7-dimethylpyrido[2,3-d]pyrimidin-2-yl)amino)piperidin-1-yl)methyl)-3-(difluoromethyl)benzonitrile]	1 to 10	100 to 3000	
CNc1c(C)c(N[C@@H]2CCN(C)C2)nc2nc(C)cc(C)c12 [Example 620]	> 31.6	0 to 100	
Cc1nc2nc(NC3CCN(Cc4cc(F)cc(F)c4O)CC3)nc(N)c2c2c1CCC2 [Example 536]	1 to 10	100 to 3000	
Cc1cc(C)c2c(NCCC(N)=O)nc(NC3CCN(C)CC3)nc2n1 [Example 329]	> 31.6	0 to 100	
Cc1cc(C)c2c(N)nc(NC3CCN(Cc4c[nH]cn4)CC3)nc2n1 [Example 491]	10 to 100	100 to 3000	
CNc1nc(N[C@@]2(C)CCNC2)nc2nc(C)cc(C)c12 [Example 637]	> 31.6	0 to 100	

SMILES	EC (100% of 200 uM G418 response) [µM]	Emax [%]	pC100% (negative logarithm of the concentration giving the same response as 200 μM G418)
Cc1cc(C)c2c(NCC(F)F)nc(N[C@@H]3CCN(C)C3)nc2n1 [Example 636]	1 to 10		
Cc1cc(C)c2c(N)nc(NC3CCN(Cc4cccc(C#N)c4)CC3)nc2n1 [Example 499]	1 to 10	100 to 3000	
CNc1nc(N[C@H]2CNC[C@@H]2O)nc2nc(C)cc(C)c12 [Example 325]	1 to 10		
CCNc1nc(N[C@@]23CNC[C@@H]2C3)nc2nc(C)cc(C)c12 [Example 419]	0.1 to 1		
CNc1nc(N[C@H]2CN(C3CC3)C[C@@H]2O)nc2nc(C)cc(C)c12 [Example 612]	10 to 100	100 to 3000	
Cc1c2c(nc3nc(NC4CCN(Cc5ccc(C#N)cc5F)CC4)nc(N)c13)CCC2 [Example 649]	1 to 10	100 to 3000	
Cc1cc(C)c2c(N)nc(NCC(O)CN3CCCCC3)nc2n1 (centres unmarked) [Example 642]	10 to 100	100 to 3000	
CNc1nc(N[C@H]2CN(C3CCC3)C[C@@H]2O)nc2nc(C)cc(C)c12 [Example 624]	1 to 10	100 to 3000	
CC(O)c1ccc2c(N)nc(NC3CCN(C)CC3)nc2n1 (centres unmarked) [Example 288]	10 to 100	100 to 3000	
CC(=O)Nc1ccccc1-c1ccc2c(N)nc(NC3CCN(C)CC3)nc2n1 [Example 60]	> 100	0 to 100	
CNc1nc(NC2CCCN3CCCC23)nc2nc(C)cc(C)c12 (centres unmarked) [Example 597]			++ (pC100% > 5.0 ≤ 6.0)
CNc1nc(N[C@H]2CNCC23CC3)nc2nc(C)cc(C)c12 [Example 403]	1 to 10		
CNc1nc(N[C@@H]2CCN(C)C2)nc2nc3c(c(C)c12)CCC3 [Example 336]	0.1 to 1	100 to 3000	
Cc1cccc(-c2cc(C)c3c(N)nc(NCCCN4CCOCC4)nc3n2)c1 [Example 253, 5-methyl-N2-(3-morpholinopropyl)-7-(m-tolyl)pyrido[2,3-d]pyrimidine-2,4-diamine]	1 to 10		
CN1CCC(Nc2nc(N)c3c(C#N)ccnc3n2)CC1 [Example 250, 4-amino-2-((1-methylpiperidin-4-yl)amino)pyrido[2,3-d]pyrimidine-5-carbonitrile]	> 100	0 to 100	
COCc1cccc(-c2ccc3c(N)nc(NC4CCN(C)CC4)nc3n2)c1 [Example 81]	1 to 10		
Cc1cc(C)c2c(N)nc(N[C@H]3CCNC[C@H]3F)nc2n1 [Example 587]	1 to 10	100 to 3000	
CNc1cc(N[C@H]2CN(C)C[C@@H]2OC)nc2nc3c(c(C)c12)CCC3 [Example 421]	0.1 to 1	100 to 3000	
CNc1nc(N[C@H]2CCCNCC2)nc2nc(C)cc(C)c12 [Example 387]	1 to 10	100 to 3000	
CNC(=O)c1cccc(-c2ccc3c(N)nc(NC4CCN(C)CC4)nc3n2)c1 [Example 80]	10 to 100	100 to 3000	

SMILES	EC (100% of 200 uM G418 response) [µM]	Emax [%]	pC100% (negative logarithm of the concentration giving the same response as 200 μM G418)
Cc1cc(C)c2c(NC3CCCC3)nc(N[C@@H]3CCNC3)nc2n1 [Example 324]	> 31.6	0 to 100	
CNc1c(C)c(NCCCN(C)C)nc2nc(C)cc(C)c12 [Example 522, N^2-(3-(dimethylamino)propyl)-N^4,3,5,7-tetramethyl-1,8-naphthyridine-2,4-diamine]	> 31.6	0 to 100	
CNc1nc(N[C@@H]2C[C@@H]3CC[C@H]2N3C)nc2nc(C)cc(C)c12 [Example 368]	1 to 10	100 to 3000	
Cc1cc(C)c2c(N)nc(N[C@@H]3CCNC[C@H]3O)nc2n1 [Example 180]	1 to 10	100 to 3000	
Cc1cc(C)c2c(NC3CC3)nc(NC3CCN(C)CC3)nc2n1 [Example 320]	1 to 10	100 to 3000	
CNc1c(C)c(NC2CCN(C)CC2)nc2nc(C)cc(C)c12 [Example 257, N^4,3,5,7-tetramethyl-N^2-(1-methylpiperidin-4-yl)-1,8-naphthyridine-2,4-diamine]	> 31.6	0 to 100	
Cc1cc(C)c2c(N)nc(NC3CCN(Cc4ccccc4)CC3(F)F)nc2n1 (centres unmarked) [Example 639]	> 31.6	0 to 100	
Cc1cc(C)c2c(N)nc(N[C@@H]3CN[C@H](C)C3)nc2n1 [Example 348]	10 to 100	100 to 3000	
CNc1nc(N[C@@H]2CCCN(C)C2)nc2nc(C)cc(C)c12 [Example 385]	0.1 to 1		
CNc1nc(N[C@@H]2CCNC2)nc2nc3c(c(C)c12)CCC3 [Example 231, (R)—N^4,5-dimethyl-N^2-(pyrrolidin-3-yl)-7,8-dihydro-6H-cyclopenta[5,6]pyrido[2,3-d]pyrimidine-2,4-diamine]	0.1 to 1	100 to 3000	
CNc1cc(N[C@H]2CNC[C@H]2F)nc2nc3c(c(C)c12)CCC3 [Example 633]	1 to 10		
Cc1cc(C)c2c(N)nc(NC3CCN(Cc4c(C)cccc4O)CC3)nc2n1 [Example 538]	0.1 to 1	100 to 3000	
Cc1cc(C)c2c(N)nc(NCC3(N(C)C)CCOCC3)nc2n1 [Example 156]	1 to 10		
Nc1nc(NC23CCN(CC2)CC3)nc2nc(-c3ccccc3)c3c(c12)CCC3 [Example 127, 6-phenyl-N^3-(quinuclidin-4-yl)-8,9-dihydro-7H-cyclopenta[4,5]pyrido[2,3-d]pyrimidine-1,3-diamine]	0.1 to 1	100 to 3000	
CN1CCC(Nc2nc(N)c3ccc(-c4cccc(C(=O)N(C)C)c4)nc3n2)CC1 [Example 86]	> 100	0 to 100	
Cc1cc(C)c2c(N)nc(N[C@H]3CCCC[C@@H]3N(C)C)nc2n1 [Example 155]	> 31.6	0 to 100	
Cc1c2c(nc3nc(NC4CCN(Cc5cccc(S(N)(=O)=O)c5)CC4)nc(N)c13)CCC2 [Example 665]	1 to 10	100 to 3000	
CN1CCC(Nc2nc(N)c3ccc(-c4ccc(Cl)cc4)nc3n2)CC1 [Example 96]	10 to 100		
CN1CCC(Nc2nc(N)c3cc(C(=O)O)cnc3n2)CC1 [Example 287]	> 100	0 to 100	
Cc1cc(C)c2c(N)nc(NCC3CCN(C)C3)nc2n1 (centres unmarked) [Example 170]	10 to 100	100 to 3000	
